Measured values: patent US12331048B2, “Pyrido-[3,4-d]pyridazine amine derivatives useful as NLRP3 inhibitors” (Ventus Therapeutics U.S., Inc., priority 2022, dated 2025)
Values after ≈ are worked out from the molar mass of the structure shown. Like-named read-outs stand apart in the source and are kept apart here.

How the values were obtained:
[1] = Solubility in phosphate buffered solution (PBS, pH 7.4); format: physicochemical; conditions: for solubility at 2 h: phosphate buffered solution (PBS), aqueous buffer, kinetic from dmso stock
Protocol: In additional embodiments, the solubility of compounds of the instant disclosure may be determined following known procedures, such as described in Alsenz and Kansy, Advanced Drug Delivery Reviews (2007) 59:546-567, and Wang et al. J Mass Spectrom. (2000) 35:71-76. For example, the kinetic solubility in physiologically relevant media, such as phosphate buffered solution (PBS, pH 7.4) or simulated gastric fluid (SGF), may be measured using serial dilution and two hour incubation period, followed by filtration, and reported in μM by LC-MS/MS. Thermodynamic solubility in physiologically relevant media may be measured by LC-MS/MS, after a twenty-four hour incubation, followed by filtration, and reported in mg/mL. Optimized solubility may be beneficial for manufacturing and further processing of the compound. Furthermore, optimized solubility allows for a more efficient in vitro analysis of the compound, including data collection around the compound's safety, drug-drug interactions, potency, selectivity, metabolism, and permeability. […]

[2] = Brain levels (kp and kpu,u) after oral administration; format: in vivo, CDI mice; conditions: mice, 20 mpk PO; for Kp at 24 h / Kpu,u (unbound brain-to-plasma ratio): CDI, mouse, brain / plasma, po, 20 mg/kg
Protocol: The in vivo total brain to plasma ratio was assessed in CDI mice after oral administration of the compound. Blood was collected at several timepoints up to 24 h, and transferred into plastic micro centrifuge tubes with EDTA-K2 as anticoagulant. Blood samples were centrifuged at 4000 g for 5 minutes at 4° C. to obtain plasma, then immediately frozen and stored at −75±15° C. prior to analysis. Animals were terminally anaesthetized with a rising concentration of CO2 gas at about 1 minute. At selected timepoints, whole brains were removed from the skull, rinsed in cold PBS to remove blood, dried with clean gauze, then frozen in liquid nitrogen and kept at −75±15° C. before analysis. At the time of analysis, brain samples were homogenized with PBS by tissue weight (g) to PBS volume (mL) ratio 1:3. Plasma and brain drug levels were quantified by LC/MS/MS on a AB Sciex Triple Quad 5500+ instrument, after separation on a HALO 160A ES-C18, 2.7 μm 2.1-50 mm column. Quantitation was performed using a calibration curve prepared in blank plasma or blank brain homogenate. The software WinNonlin (Phoenix™) was used for pharmacokinetic analysis from the concentrations versus time data, including the AUCinf and AUClast. The Kp ratio (total brain concentration over total plasma concentration) was calculated as (AUCtot,br)/(AUCtot,pl).
The unbound brain exposure was assessed as Kpuu, which is the free brain/free plasma concentration ratio (Cu,br/Cu,pl). The Cu,br/Cu,pl ratios were obtained from in vivo total brain to plasma ratios (Ctot,br/Ctot,pl) by using in vitro determined Fu,br and Fu,pl.
Plasma protein binding and brain homogenate protein binding were measured by equilibrium dialysis in a HTDialysis plate. The dialysis membranes were soaked in ultrapure water for 60 minutes to separate strips, then in 20% ethanol for 20 minutes, finally in dialysis buffer for 20 minutes. The dialysis set up was assembled according to the manufacturer's instruction. Each cell received 150 μL of plasma or brain homogenate spiked with 1 mM of compound, and dialyzed against an equal volume of dialysis buffer (PBS). The dialysis plate was sealed and incubated in an incubator at 37° C. with 5% CO2 at 100 rpm for 6 hours. At the end of incubation, compound concentration was measured in both chambers by LC-MS/MS on a Triple Quad™ 5500 from AB Inc after separation on a XSelect Hss T3 2.5μ (2.1×30 mm) column. Free fraction (Fu) was calculated as (Peak Area Ratio buffer chamber/Peak Area Ratio plasma chamber).
Kpuu was calculated as (AUCtot,br×Fu,br)/(AUCtot,pl×Fu,pl).
The below table also assigns each compound a code for kp and kpu,u values: A or B. According to the code. A represents a value of >0.3 and B represents a value of ≤0.3. […] The kpu,u was then calculated upon correcting this kp value with mouse plasma protein binding and mouse brain homogenates binding. A Kpu,u value >0.3 is brain penetrant, and Kpu,u value less than or equal to 0.3 is not brain penetrant. N.D.=not determined. The corresponding raw kp and kpu,u data is also included.

NLRP3 = target: T1, NLRP3 (Homo sapiens, UniProt Q96P20); experiment: Human whole blood (hWB) NLRP3 assay; format: cell-based; conditions: LPS priming 1 μg/ml, ATP activation, read-out: hWB IC50 (raw activity data)
T1 construct: endogenous in cells
T1 sequence (Q96P20 whole entry): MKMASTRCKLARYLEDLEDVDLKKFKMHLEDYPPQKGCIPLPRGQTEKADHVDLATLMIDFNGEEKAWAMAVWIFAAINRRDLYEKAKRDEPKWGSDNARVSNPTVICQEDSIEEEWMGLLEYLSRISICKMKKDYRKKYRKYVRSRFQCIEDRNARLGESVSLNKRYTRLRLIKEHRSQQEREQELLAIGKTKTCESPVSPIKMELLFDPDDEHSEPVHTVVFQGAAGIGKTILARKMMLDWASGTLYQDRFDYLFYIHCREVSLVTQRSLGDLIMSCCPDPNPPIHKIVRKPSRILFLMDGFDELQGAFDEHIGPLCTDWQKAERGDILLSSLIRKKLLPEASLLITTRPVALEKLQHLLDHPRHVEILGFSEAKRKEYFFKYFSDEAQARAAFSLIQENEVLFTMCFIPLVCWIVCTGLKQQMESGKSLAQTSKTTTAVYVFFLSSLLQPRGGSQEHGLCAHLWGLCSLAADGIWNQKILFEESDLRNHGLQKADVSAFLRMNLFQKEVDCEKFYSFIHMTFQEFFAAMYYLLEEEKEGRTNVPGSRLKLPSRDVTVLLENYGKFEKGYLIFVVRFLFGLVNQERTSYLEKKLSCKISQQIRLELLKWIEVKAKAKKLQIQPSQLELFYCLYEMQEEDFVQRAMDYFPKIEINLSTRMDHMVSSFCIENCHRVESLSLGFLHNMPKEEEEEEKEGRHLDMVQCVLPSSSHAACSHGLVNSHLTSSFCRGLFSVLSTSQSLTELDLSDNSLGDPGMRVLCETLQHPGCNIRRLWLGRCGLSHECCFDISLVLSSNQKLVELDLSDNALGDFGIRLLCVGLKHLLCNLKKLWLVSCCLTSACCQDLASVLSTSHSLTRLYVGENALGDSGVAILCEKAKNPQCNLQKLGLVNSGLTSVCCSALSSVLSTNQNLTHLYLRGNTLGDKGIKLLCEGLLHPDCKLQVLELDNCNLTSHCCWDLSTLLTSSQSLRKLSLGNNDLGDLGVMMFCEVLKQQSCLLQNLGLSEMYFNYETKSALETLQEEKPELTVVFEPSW
Protocol: Heparin lithium coated tubes were used to collect blood from volunteers. Blood samples were distributed on 96 well plates using 90 μl per well. Priming was performed by adding 5 μl of LPS (O26:B6; Sigma L-2654) at a final concentration of 1 μg/ml for 4.5 hours in a humidified incubator with 37° C., 5% CO2. Thirty minutes prior to NLRP3 activation, 5 μl of a 20× compound solution or vehicle (2% DMSO) was added to each well and plates were incubated on a shaker (450 rpm) in a humidified incubator with 37° C., 5% CO2. Activation was then performed by adding 3.3 μl of a 31×ATP solution per well. At the end of the 30 minutes stimulation, the plates were centrifuged (800 g, 10 min. room temperature) and the plasma from each well was frozen at −80° C. […] levels in the supernatant were analyzed using a mesoscale discovery assay (MSD K151TUK) according to the manufacturers' instructions. Human whole blood was drawn from healthy volunteers after obtaining written informed consent.
Table D assigns each compound a code for potency in the human whole blood (hWB) NLRP3 Assay: A or B. According to the code. […] The corresponding raw activity data is also included.

[3] = whole brain AUC over 24 h divided by plasma AUC, read-out: kp (code)
[4] = whole brain AUC over 24 h divided by plasma AUC, read-out: kp (raw)
[5] = kp corrected with mouse plasma protein binding and mouse brain homogenate binding

solubility at 2 h [1] [µM]	increase in solubility (PBS, pH 7.4) compared to Comparative Example 3 ([1]; relative to Comparative Example 3 (6.7 uM)) [fold]	Kp at 24 h [2, 3]	Kp at 24 h [2, 4]	Kpu,u (unbound brain-to-plasma ratio) [2, 5]	kp (code) ([2]; whole brain AUC over 24 h divided by plasma AUC)	kpu,u (code) [2, 5]	IC50 (NLRP3) [nM]	kpu,u (raw) [2, 5]	Structure (SMILES)
45 (≈ 18.1 µg/mL)	7	> 0.3	0.4	0.63	A (A represents a value of >0.3)	A (A represents a value of >0.3)	260	–	CC1(C)C[C@H](Nc2nnc(-c3ccc(OC(F)F)cc3O)c3ccncc23)CO1 (single isomer, unassigned) [Compound 9*]
–	–	> 0.3	0.64	0.33	–	A (A represents a value of >0.3)	510	–	Cc1ccc(-c2nnc(N[C@H]3CCOC(C)(C)C3)c3cnccc23)c(O)c1 (single isomer, unassigned) [Compound 14]
–	–	> 0.3	0.83	2.2	–	A (A represents a value of >0.3)	1200	–	CC1(C)COCC[C@@H]1Nc1nnc(-c2ccc(C(F)(F)F)cc2O)c2ccncc12 (single isomer, unassigned) [Compound 15]
–	–	> 0.3	0.48	0.59	–	A (A represents a value of >0.3)	1800	–	CC1(C)C[C@@H](Nc2nnc(-c3ccc(C(F)F)cc3O)c3ccncc23)CCO1 (single isomer, unassigned) [Compound 16*]
–	–	> 0.3	0.69	1.9	–	A (A represents a value of >0.3)	330	–	CC1(C)COCC[C@@H]1Nc1nnc(-c2ccc(C(F)F)cc2O)c2ccncc12 (single isomer, unassigned) [Compound 17]
–	–	> 0.3	0.68	0.47	–	A (A represents a value of >0.3)	890	–	C[C@H]1COCC[C@H]1Nc1nnc(-c2ccc(Cl)cc2O)c2ccncc12 (single isomer, unassigned) [Compound 18*]
–	–	> 0.3	0.73	0.3	–	A (A represents a value of >0.3)	1100	–	C[C@@H]1COCC[C@H]1Nc1nnc(-c2ccc(Cl)cc2O)c2ccncc12 (single isomer, unassigned) [Compound 18A*]
–	–	> 0.3	1.4	0.81	–	A (A represents a value of >0.3)	1400	–	Oc1cc(C(F)(F)F)ccc1-c1nnc(N[C@H]2COC3(CC3)C2)c2cnccc12 (single isomer, unassigned) [Compound 19]
–	–	> 0.3	0.61	0.46	–	A (A represents a value of >0.3)	890	–	CC1(C)CC[C@H](Nc2nnc(-c3ccc(C(F)F)cc3O)c3ccncc23)CO1 (single isomer, unassigned) [Compound 20]
–	–	> 0.3	1.1	0.34	–	A (A represents a value of >0.3)	960	–	CC1(C)OCC[C@H]1Nc1nnc(-c2ccc(C(F)(F)F)cc2O)c2ccncc12 (single isomer, unassigned) [Compound 22]
–	–	≤ 0.3	0.24	0.33	–	A (A represents a value of >0.3)	120	–	CC1(C)C[C@@H](Nc2nnc(-c3ccc(C(F)F)cc3O)c3ccncc23)CO1 (single isomer, unassigned) [Compound 23]
–	–	> 0.3	1.1	0.1	–	B (B represents a value of ≤0.3)	580	–	C[C@@H]1C[C@H](Nc2nnc(-c3ccc(Cl)cc3O)c3ccncc23)CCO1 (single isomer, unassigned) [Compound 25A*]
–	–	> 0.3	0.65	0.099	–	B (B represents a value of ≤0.3)	1400	–	C[C@H]1C[C@H](Nc2nnc(-c3ccc(Cl)cc3O)c3ccncc23)CCO1 (single isomer, unassigned) [Compound 25C*]
–	–	> 0.3	1	0.2	–	B (B represents a value of ≤0.3)	1200	–	C[C@@H]1C[C@@H](Nc2nnc(-c3ccc(Cl)cc3O)c3ccncc23)CCO1 (single isomer, unassigned) [Compound 25D*]
6.7 (≈ 2.48 µg/mL)	–	> 0.3	0.4	–	–	A (A represents a value of >0.3)	–	0.43	CC1(C)C[C@@H](Nc2nnc(-c3ccc(Cl)cc3O)c3ccncc23)CO1 [Comparative Example 3, (R)-5-chloro-2-(4-((5,5-dimethyltetrahydrofuran-3-yl)amino)pyrido[3,4-d]pyridazin-1-yl)phenol, reference compound]
–	–	≤ 0.3	0.24	2.2	–	A (A represents a value of >0.3)	160	–	[2H]C([2H])([2H])OC(C)(C)CNc1nnc(-c2ccc(C(F)F)cc2O)c2ccncc12 [Compound 2, 5-(difluoromethyl)-2-(4-((2-(methoxy-d3)-2-methylpropyl)amino)pyrido[3,4-d]pyridazin-1-yl)phenol]
–	–	–	0.18	0.11	–	B (B represents a value of ≤0.3)	200	–	OCC1(CNc2nnc(-c3ccc(Cl)cc3O)c3ccncc23)CC1 [Compound 8, 5-chloro-2-(4-(((1-(hydroxymethyl)cyclopropyl)methyl)amino)pyrido[3,4-d]pyridazin-1-yl)phenol, reference compound]
